# Legend:
# [1] = test system: aortic rings (macrovascular sprouting); experiment: Aortic ring sprouting assay (ex vivo aortic ring explants); format: cell-based, mouse
# Method: Tie2-CYP2C8Tg, Tie2-sEHTg, sEH−/− mice and littermate wild-type mice were anesthetized and perfused intracardiacly with warm PBS. Aortae were dissected free, cut into 1-mm-thick rings and embedded in 304, of growth factor-reduced Matrigel™ (BD Biosciences, Cat. 354230) in 24-well tissue culture plates. 5004, CSC complete medium (Cell Systems, Cat. 420-500) activated with growth factor Boost, was then added to each well and incubated at 37° C. with 5% CO2 for 48 hours before any treatment. Medium contained 5 units/mL of Penicillin/Streptomycin (GIBCO, Cat. 15142) to prevent contamination.
# DHA (Cayman Chemical, Cat. 90310, 30 μM) and AA (Cayman Chemical, Cat. 90010, 30 μM) were introduced to the culture medium 48 hours after seeding of aortic ring from Tie2-CYP2C8Tg and littermate wild-type control. 17(18)-EpETE (EEQ) (Cayman Chemical, Cat. 50861, 1 μM), 19(20)-EpDPE (EDP) (Cayman Chemical, Cat. 10175, 1 μM) and 14,15-EE-8(Z)-E (EET) (Cayman Chemical, Cat. 10010486, 1 μM) were administered to the culture medium 48 hours after seeding of aortic ring from Tie2-sEHTg, sEH−/− and their wild-type littermate controls. Medium was changed every 48 hours for all groups. Phase contrast photos of individual explants were taken 168 hours after plating (120 hours after treatment) using a ZEISS Axio Oberver.Z1 microscope. The areas of macrovascular sprouting were quantified with computer software ImageJ 1.46r (National Institute of Health). A semi-automated macro plugin for quantification of vessel sprouts is available from the authors.
# [2] = test system: human retinal microvascular endothelial cells (HRMEC); experiment: HRMEC migration; format: cell-based; conditions: for rescue of the inhibition of HRMEC migration by FA: with FA
# [3] = test system: human retinal microvascular endothelial cells (HRMEC); experiment: HRMEC tubule formation; format: cell-based
# [4] = test system: neovascularization (NV) in oxygen-induced retinopathy; experiment: Oxygen-induced retinopathy (OIR) mouse model, quantification of retinal neovascularization; format: in vivo; conditions: for magnitude of the extent of reduction in NV, Cyp2C8 Tg mice compared to WT mice: 10 mg/kg/day GV, mice fed ω3 (n3) or ω6 (n6)
# Method: Mouse model of OIR is described^13. C57BL/6J mice were analyzed by immunohistochemistry, real-time PCR, western blot, blood smear and LC/MS/MS oxylipid analysis. Mothers of Cyp and sEH mutant mice were fed ω3PUFA or ω6PUFA-enriched diets in OIR followed by analysis of retina, plasma and aortic ring sprouting.
# The mouse model of oxygen-induced retinopathy has been previously described (Smith et al. Invest Ophthalmol Vis Sci 35: 101-111). To induce vessel loss, mice were exposed to 75% oxygen from postnatal day 7 (P7) to P12. The central retinal vessel obliteration induced by hyperoxic exposure will trigger an excessive angiogenic response that causes neovascularization. Mice were given lethal doses of Avertin (Sigma) intraperitoneally at P17 when the neovascular response is greatest.
# For dietary experiments, polyunsaturated fatty acids (PUFAs), arachidonic acid (AA) and docosahexaenoic acid (DHA) supplements under the trade names ROPUFA, ARASCO and DHASCO, respectively, were obtained from DSM Nutritional Products (dsmnutritionalproducts.com) and were integrated into the rodent feed at Research Diets Incorporated (researchdiets.com/). […] Upon delivery, dams were fed a defined rodent diet with 10% (w/w) safflower oil containing either 2% ω-6 PUFAs (AA) and no ω-3 PUFAs (DHA and EPA), or 2% ω-3 PUFAs and no ω-6 PUFAs.
# OIR eyes were enucleated and fixed in 4% paraformaldehyde for 1 hour at 4° C. Retinas were dissected and stained overnight at 23° C. with Alexa Fluor 594 fluoresceinated Griffonia Bandereiraea Simplicifolia Isolectin B4 (Molecular Probes, Cat. 121413, 1:100 dilution) in 1 mM CaCl2 in PBS. Following 2 hours of washes, retinas were whole-mounted onto Superfrost/Plus microscope slides (Fisher, Cat. 12-550-15) with the photoreceptor side up and embedded in SlowFade Antifade reagent (Invitrogen, Cat. S2828). For quantification of retinal neovascularization, 20 images of each whole-mounted retina were obtained at 5× magnifications on a Zeiss AxioObserver.Z1 microscope and merged to form one image with AxioVision 4.6.3.0 software. Vaso-obliteration was quantified using Adobe Photoshop and neovascularization was analysed with the SWIFT_NV method on ImageJ 1.46r (NIH) software, as described previously (Stahl et al. Angiogenesis 12: 297-301).
smiles,measurement,setting,value
"CCCCC/C=C\C/C=C\C/C=C\C/C=C\CCCC(=O)O [AA, arachidonic acid]","potentiation of aortic sprouting, AA vs. DHA","[1]; 30 μM, Tie2-CYP2C8-Tg rings",abolished
same,"aortic sprouting, AA vs. DHA","[1]; 30 μM, WT rings",potentiated aortic sprouting
"CCC1OC1C/C=C\C/C=C\C/C=C\C/C=C\C/C=C\CCC(=O)O (stereo not shown) [19,20-EDP, 19(20)-EpDPE]",rescue of the inhibition of HRMEC migration by FA,[2],partially rescuing
same,"less sprouting, treated Tie2-sEH-Tg aortic ring versus WT",[1]; 1 μM,50%
same,rescue of FA inhibition of aortic ring sprouting,"[1]; rings from WT & Cyp2C8 Tg mice, with FA",partially rescued
same,rescue of the inhibition of HRMEC tubule formation by FA,[3]; with FA,partially rescued
CCC(=O)NC[C@H](Cc1ccc(OCCc2nc(-c3ccccc3)oc2C)cc1)N/C(C)=C\C(=O)c1ccc(C(F)(F)F)cc1 [GW6471],impact upon the effect of fenofibrate on HRMEC migration,[2]; with FA/fenofibrate,no impact
same,impact upon the effect of FA on aortic ring sprouting,"[1]; rings from WT and Cyp2C8 Tg mice, with FA",no impact
same,impact upon the effect of fenofibrate on HRMEC tubule formation,[3]; with fenofibrate,no impact
"CCCCCC1OC1C/C=C\C/C=C\C/C=C\CCCC(=O)O (stereo not shown) [14,15-EET, 14,15-EE-8(Z)-E]","aortic ring sprouting compared between WT, Tie2-sEH-Tg and sEH−/− mice",[1]; 1 μM,similar
"CC/C=C\C/C=C\C/C=C\C/C=C\C/C=C\C/C=C\CCC(=O)O [DHA, docosahexaenoic acid]","aortic sprouting, Tie2-CYP2C8-Tg versus WT",[1]; DHA treatment 30 μM,increased sprouting
CC(C)OC(=O)C(C)(C)Oc1ccc(C(=O)c2ccc(Cl)cc2)cc1 [fenofibrate],HRMEC tubule formation,[3],inhibit HRMEC tubule formation
same,"magnitude of the extent of reduction in NV, Cyp2C8 Tg mice compared to WT mice",[4],enhanced in mice that overexpressed CYP2C8
same,neovascularization,"[4]; Cyp2C8 overexpressing transgenic (Tg) mice, ω3 and ω6 LCPUFA feed, low dose",decreased neovascularization
same,neovascularization (NV),"[4]; JAX (WT) mice, normal feed, high dose 100 mg/kg/day GV",significant reduction in neovascularization
same,neovascularization (NV),"[4]; JAX (WT) mice, normal feed, low dose 10 mg/kg/day GV",significant reduction in neovascularization
same,neovascularization (NV),"[4]; PPARα knockout mice, normal feed, high dose 100 mg/kg/day GV",significant reduction in neovascularization
same,neovascularization (NV),"[4]; PPARα knockout mice, normal feed, low dose 10 mg/kg/day GV",significant reduction in neovascularization
same,neovascularization,"[4]; WT mice, ω3 and ω6 LCPUFA feed, low dose",decreased neovascularization
"CCC1OC1C/C=C\C/C=C\C/C=C\C/C=C\CCCC(=O)O (stereo not shown) [17,18-EEQ, 17(18)-EpETE]",rescue of the inhibition of HRMEC migration by FA,[2],partially rescuing
same,"aortic ring sprouting compared between WT, Tie2-sEH-Tg and sEH−/− mice",[1]; 1 μM,no difference
CC(C)(O)c1ccccc1CC[C@@H](SCC1(CC(=O)O)CC1)c1cccc(/C=C/c2ccc3ccc(Cl)cc3n2)c1 [montelukast],HRMEC migration,[2],inhibited
same,HRMEC tubule formation,[3],clear dose-response curves
same,"magnitude of the extent of reduction in NV, Cyp2C8 Tg mice compared to WT mice",[4],enhanced in mice that overexpressed CYP2C8
same,neovascularization,"[4]; JAX (WT) mice, normal feed, dose not given",reduced in a statistically significant manner
